According to ChEMBL document CHEMBL1201862, “PubChem BioAssay data set” (2004):
Structures can show the parent of a compound that is named as a salt.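 Cells were grown in 96-well plates and exposed to each compound for 48 hours at five concentrations; endpoints were interpolated linearly between bracketing concentrations, or set to the highest concentration if not reached. The concentration for 50% growth inhibition is given as GI50.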 The source made the active and inactive calls. No stated cut-off is given here; in the data, active = GI50 up to about 1.1 µM and inactive = higher.

Legend:
Assay in all cases: NCI-60 cell line screen, 48 h
[1] = tested on: 786-0
[2] = tested on: ACHN
[3] = tested on: COLO 205
[4] = tested on: DU-145
[5] = tested on: HL-60
[6] = tested on: HOP-92
[7] = tested on: M14
[8] = tested on: MDA-MB-435
[9] = tested on: MDA-N
[10] = tested on: NCI-H226
[11] = tested on: NCI-H522
[12] = tested on: OVCAR-4
[13] = tested on: SK-OV-3
[14] = tested on: SNB-19
[15] = tested on: SR
[16] = tested on: T47D
[17] = tested on: UACC-257
[18] = tested on: UACC-62
[19] = tested on: UO-31
[20] = tested on: K562

Compound	GI50 [1]	GI50 [2]	GI50 [3]	GI50 [4]	GI50 [5]	GI50 [6]	GI50 [7]	GI50 [8]	GI50 [9]	GI50 [10]	GI50 [11]	GI50 [12]	GI50 [13]	GI50 [14]	GI50 [15]	GI50 [16]	GI50 [17]	GI50 [18]	GI50 [19]	GI50 [20]
O=C(c1cc(Cl)cc(Cl)c1)N(C(=S)OC12CC3CC(CC(C3)C1)C2)c1ccccc1	32.8 µM (inactive)	33.2 µM (inactive)	18.6 µM (inactive)	75.2 µM (inactive)	24.4 µM (inactive)	29 µM (inactive)	22.7 µM (inactive)	42.2 µM (inactive)	31.8 µM (inactive)	35.5 µM (inactive)	16 µM (inactive)	46.8 µM (inactive)	32.5 µM (inactive)	45.6 µM (inactive)	43.1 µM (inactive)	61.2 µM (inactive)	43.3 µM (inactive)	32.6 µM (inactive)	25.1 µM (inactive)	–
NCCSSCCN [CYSTAMINE HYDROCHLORIDE]	> 100 µM (inactive)	> 100 µM (inactive)	> 100 µM (inactive)	> 100 µM (inactive)	> 100 µM (inactive)	> 100 µM (inactive)	> 100 µM (inactive)	> 100 µM (inactive)	> 100 µM (inactive)	> 100 µM (inactive)	> 100 µM (inactive)	> 100 µM (inactive)	> 100 µM (inactive)	> 100 µM (inactive)	> 100 µM (inactive)	> 100 µM (inactive)	–	> 100 µM (inactive)	> 100 µM (inactive)	> 100 µM (inactive)
COc1c2ccoc2cc2oc(=O)ccc12 [BERGAPTEN]	> 100 µM (inactive)	> 100 µM (inactive)	> 100 µM (inactive)	> 100 µM (inactive)	> 100 µM (inactive)	> 100 µM (inactive)	> 100 µM (inactive)	> 100 µM (inactive)	> 100 µM (inactive)	> 100 µM (inactive)	> 100 µM (inactive)	> 100 µM (inactive)	–	> 100 µM (inactive)	> 100 µM (inactive)	> 100 µM (inactive)	> 100 µM (inactive)	> 100 µM (inactive)	–	> 100 µM (inactive)
Cc1cc(N(CCOS(C)(=O)=O)CCOS(C)(=O)=O)ccc1/C=N/c1ccc(-c2csc(-c3ccccc3)n2)c(Cl)c1	2.05 µM (inactive)	0.575 µM (active)	1.64 µM (inactive)	1.67 µM (inactive)	2.45 µM (inactive)	9.64 µM (inactive)	8.67 µM (inactive)	9.79 µM (inactive)	3.78 µM (inactive)	9.12 µM (inactive)	1.63 µM (inactive)	16 µM (inactive)	3.37 µM (inactive)	4.66 µM (inactive)	1.54 µM (inactive)	15.4 µM (inactive)	20.4 µM (inactive)	2.95 µM (inactive)	9.75 µM (inactive)	6.28 µM (inactive)
C#CCCOC(=O)c1ccccc1OC(C)=O	> 100 µM (inactive)	> 100 µM (inactive)	> 100 µM (inactive)	> 100 µM (inactive)	–	> 100 µM (inactive)	> 100 µM (inactive)	> 100 µM (inactive)	> 100 µM (inactive)	> 100 µM (inactive)	63.7 µM (inactive)	> 100 µM (inactive)	> 100 µM (inactive)	> 100 µM (inactive)	> 100 µM (inactive)	> 100 µM (inactive)	> 100 µM (inactive)	> 100 µM (inactive)	> 100 µM (inactive)	> 100 µM (inactive)
COc1cc2oc(-c3ccc(O)cc3)cc(=O)c2c(OC)c1OC	> 100 µM (inactive)	> 100 µM (inactive)	> 100 µM (inactive)	> 100 µM (inactive)	> 100 µM (inactive)	> 100 µM (inactive)	> 100 µM (inactive)	> 100 µM (inactive)	> 100 µM (inactive)	> 100 µM (inactive)	> 100 µM (inactive)	> 100 µM (inactive)	–	> 100 µM (inactive)	> 100 µM (inactive)	63.5 µM (inactive)	> 100 µM (inactive)	> 100 µM (inactive)	> 100 µM (inactive)	> 100 µM (inactive)
CNC(=S)/C(C#N)=C(\N)N1CCN(C)CC1	> 100 µM (inactive)	> 100 µM (inactive)	> 100 µM (inactive)	> 100 µM (inactive)	> 100 µM (inactive)	> 100 µM (inactive)	> 100 µM (inactive)	> 100 µM (inactive)	> 100 µM (inactive)	> 100 µM (inactive)	> 100 µM (inactive)	–	> 100 µM (inactive)	> 100 µM (inactive)	> 100 µM (inactive)	> 100 µM (inactive)	> 100 µM (inactive)	> 100 µM (inactive)	> 100 µM (inactive)	> 100 µM (inactive)
O=C(c1ccccc1)N1CCN(C(=S)NC2CCCCC2)C1=S	21.8 µM (inactive)	24.3 µM (inactive)	18.5 µM (inactive)	21.8 µM (inactive)	21.9 µM (inactive)	15.5 µM (inactive)	16.8 µM (inactive)	19.5 µM (inactive)	19.4 µM (inactive)	14.7 µM (inactive)	15.8 µM (inactive)	18.9 µM (inactive)	25.7 µM (inactive)	–	28.5 µM (inactive)	15.8 µM (inactive)	18.7 µM (inactive)	19.3 µM (inactive)	16.1 µM (inactive)	33.3 µM (inactive)
C[C@H]1CCCCC[C@@H]2CC(=O)CC2C(=O)CCC(=O)O1 (some centres undefined)	> 100 µM (inactive)	> 100 µM (inactive)	> 100 µM (inactive)	> 100 µM (inactive)	> 100 µM (inactive)	> 100 µM (inactive)	> 100 µM (inactive)	> 100 µM (inactive)	> 100 µM (inactive)	16.7 µM (inactive)	> 100 µM (inactive)	> 100 µM (inactive)	–	> 100 µM (inactive)	> 100 µM (inactive)	> 100 µM (inactive)	> 100 µM (inactive)	6.68 µM (inactive)	–	> 100 µM (inactive)
O=c1oc2ccccc2c(-c2ccc(O)cc2)c1Oc1ccc(Cl)cc1	26.9 µM (inactive)	25.8 µM (inactive)	23.2 µM (inactive)	42.7 µM (inactive)	–	19.8 µM (inactive)	17.1 µM (inactive)	30 µM (inactive)	19.5 µM (inactive)	20.5 µM (inactive)	16.9 µM (inactive)	38.4 µM (inactive)	–	22.4 µM (inactive)	18.2 µM (inactive)	29.6 µM (inactive)	28.2 µM (inactive)	19.9 µM (inactive)	18.1 µM (inactive)	21 µM (inactive)
c1cc(CSP234N5CCN2CCN3CCN4CC5)cc(CSP234N5CCN2CCN3CCN4CC5)c1	> 100 µM (inactive)	33 µM (inactive)	23 µM (inactive)	> 100 µM (inactive)	3.56 µM (inactive)	21.5 µM (inactive)	18.6 µM (inactive)	22.6 µM (inactive)	28.1 µM (inactive)	–	16.9 µM (inactive)	32.9 µM (inactive)	–	27.9 µM (inactive)	4.91 µM (inactive)	> 100 µM (inactive)	17 µM (inactive)	16.8 µM (inactive)	13.9 µM (inactive)	< 0.01 µM (active)
O=C(CSc1nc2ccc(I)cc2c(=O)n1Cc1ccccc1)Nc1ccccc1	8.57 µM (inactive)	26 µM (inactive)	> 100 µM (inactive)	29.9 µM (inactive)	> 100 µM (inactive)	19.3 µM (inactive)	52.1 µM (inactive)	> 100 µM (inactive)	> 100 µM (inactive)	11.9 µM (inactive)	16 µM (inactive)	14.3 µM (inactive)	12.1 µM (inactive)	17.5 µM (inactive)	11.2 µM (inactive)	21.2 µM (inactive)	–	46.6 µM (inactive)	0.331 µM (active)	39.5 µM (inactive)
Nc1nccc(NCC2(CO)CC(OCc3ccccc3)C2)n1 (centres undefined)	> 100 µM (inactive)	> 100 µM (inactive)	99.1 µM (inactive)	79.4 µM (inactive)	> 100 µM (inactive)	56.9 µM (inactive)	–	> 100 µM (inactive)	> 100 µM (inactive)	> 100 µM (inactive)	98.9 µM (inactive)	48.3 µM (inactive)	–	–	> 100 µM (inactive)	7.98 µM (inactive)	> 100 µM (inactive)	> 100 µM (inactive)	84.5 µM (inactive)	79.1 µM (inactive)
Cc1n[nH]c(=O)n1/N=C/c1ccc(Cl)cc1	> 100 µM (inactive)	> 100 µM (inactive)	43.3 µM (inactive)	47.2 µM (inactive)	–	32.9 µM (inactive)	> 100 µM (inactive)	> 100 µM (inactive)	> 100 µM (inactive)	–	21.7 µM (inactive)	98.4 µM (inactive)	83.4 µM (inactive)	61.9 µM (inactive)	34.4 µM (inactive)	35.6 µM (inactive)	81.8 µM (inactive)	56.9 µM (inactive)	61.1 µM (inactive)	> 100 µM (inactive)
CCOc1ccc(/C=C2\N=C(c3ccc([N+](=O)[O-])cc3)OC2=O)cc1	> 100 µM (inactive)	> 100 µM (inactive)	> 100 µM (inactive)	> 100 µM (inactive)	> 100 µM (inactive)	> 100 µM (inactive)	> 100 µM (inactive)	> 100 µM (inactive)	> 100 µM (inactive)	> 100 µM (inactive)	> 100 µM (inactive)	> 100 µM (inactive)	> 100 µM (inactive)	> 100 µM (inactive)	> 100 µM (inactive)	> 100 µM (inactive)	> 100 µM (inactive)	> 100 µM (inactive)	–	> 100 µM (inactive)
